Measured values published in US20240246964A1 (Arbutus Biopharma Corporation, priority 2021, published 2024).
pEC50, pIC50: −log10 of the molar value.

Tests used:
[1] = biological target: PD-L1 His protein / PD-1 Fc protein (Homo sapiens (Human), UniProt Q9NZQ7); assay: HTRF Assay (PD-1/PD-L1 interaction); assay type: binding; details: PD-L1 His 6 nM, PD-1 Fc 6 nM
human PD-L1 = human PD-L1 (Homo sapiens (Human), UniProt Q9NZQ7); assay: T cell activation luciferase reporter cell culture system (T Cell Activation Assay); assay type: cell-based; details: luciferase reporter assay; PD-L1 aAPC/CHO-K1 cells with PD-1 effector Jurkat T cells
human PD-L1, sequence (Q9NZQ7 19-290): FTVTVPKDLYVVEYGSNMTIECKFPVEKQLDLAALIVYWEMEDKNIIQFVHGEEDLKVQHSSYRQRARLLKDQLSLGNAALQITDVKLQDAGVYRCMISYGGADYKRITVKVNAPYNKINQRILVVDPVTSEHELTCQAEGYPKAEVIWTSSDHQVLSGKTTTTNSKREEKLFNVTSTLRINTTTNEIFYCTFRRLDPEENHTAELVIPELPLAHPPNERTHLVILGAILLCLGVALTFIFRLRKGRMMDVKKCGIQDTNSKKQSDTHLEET

PD-L1 His protein / PD-1 Fc protein, sequence (Q9NZQ7 19-238): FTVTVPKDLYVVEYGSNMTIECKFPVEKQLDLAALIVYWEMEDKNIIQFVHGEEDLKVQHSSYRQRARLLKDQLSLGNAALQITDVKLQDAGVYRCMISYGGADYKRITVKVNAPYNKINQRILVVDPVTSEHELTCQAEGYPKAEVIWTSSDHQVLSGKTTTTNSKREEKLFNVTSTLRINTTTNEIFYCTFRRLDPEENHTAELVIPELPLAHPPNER

SMILES: CN1CCNCc2ccc(-c3nccc(-c4cccc(-c5ccc6c(CNC[C@@H]7CCC(=O)N7)cn(C)c6n5)c4Cl)c3Cl)cc21 [Compound 9, (S)-5-((((6-(2-chloro-3-(3-chloro-2-(1-methyl-2,3,4,5-tetrahydro-1H-benzo[e][1,4]diazepin-8-yl)pyridin-4-yl)phenyl)-1-methyl-1H-pyrrolo[2,3-b]pyridin-3-yl)methyl)amino)methyl)pyrrolidin-2-one]
- pIC50 [1]: 7.81
- pEC50 (human PD-L1): 6.67

SMILES: COc1cc(-c2nccc(-c3ccnc(-c4cc(F)c(CNC[C@@H]5CCC(=O)N5)c(OC)c4)c3Cl)c2Cl)cc(F)c1CNC[C@@H]1CCC(=O)N1 [Compound 12, (5S,5′S)-5,5′-(((((3,3′-dichloro-[4,4′-bipyridine]-2,2′-diyl)bis(2-fluoro-6-methoxy-4,1-phenylene))bis(methylene))bis(azanediyl))bis(methylene))bis(pyrrolidin-2-one)]
- pIC50 [1]: 10.00
- pEC50 (human PD-L1): 7.17

SMILES: COc1cc(-c2nccc(-c3ccnc(-c4ccc5c(CNC[C@@H]6CCC(=O)N6)cn(C)c5c4)c3Cl)c2Cl)ccc1CNC[C@@H]1CCC(=O)N1 [Compound 14, (S)-5-(((4-(3,3′-dichloro-2′-(1-methyl-3-(((((S)-5-oxopyrrolidin-2-yl)methyl)amino)methyl)-1H-indol-6-yl)-[4,4′-bipyridin]-2-yl)-2-methoxybenzyl)amino)methyl)pyrrolidin-2-one]
- pIC50 [1]: 9.22
- pEC50 (human PD-L1): 6.78

SMILES: Cn1cc(CNC[C@@H]2CCC(=O)N2)c2ccc(-c3nccc(-c4ccnc(-c5ccc6c(CNC[C@@H]7CCC(=O)N7)cn(C)c6c5)c4Cl)c3Cl)cc21 [Compound 15, (5S,5′S)-5,5′-(((((3,3′-dichloro-[4,4′-bipyridine]-2,2′-diyl)bis(1-methyl-1H-indole-6,3-diyl))bis(methylene))bis(azanediyl))bis(methylene))bis(pyrrolidin-2-one)]
- pIC50 [1]: 6.97
- pEC50 (human PD-L1): 5.00

SMILES: COc1cc(-c2nccc(-c3ccnc(-c4cnc5c(CNC[C@@H]6CCC(=O)N6)cn(C)c5c4)c3Cl)c2Cl)ccc1CNC[C@@H]1CCC(=O)N1 [Compound 16, (S)-5-(((4-(3,3′-dichloro-2′-(1-methyl-3-(((((S)-5-oxopyrrolidin-2-yl)methyl)amino)methyl)-1H-pyrrolo[3,2-b]pyridin-6-yl)-[4,4′-bipyridin]-2-yl)-2-methoxybenzyl)amino)methyl)pyrrolidin-2-one]
- pIC50 [1]: 9.00
- pEC50 (human PD-L1): 6.45

SMILES: COc1cc(-c2nccc(-c3cccc(-c4ccc5c(CNC[C@@H]6CCC(=O)N6)cn(C)c5n4)c3Cl)c2Cl)ccc1CNC[C@@H]1CCC(=O)N1 [Compound 17, (S)-5-((((6-(2-chloro-3-(3-chloro-2-(3-methoxy-4-(((((S)-5-oxopyrrolidin-2-yl)methyl)amino)methyl)phenyl)pyridin-4-yl)phenyl)-1-methyl-1H-pyrrolo[2,3-b]pyridin-3-yl)methyl)amino)methyl)pyrrolidin-2-one]
- pIC50 [1]: 8.62
- pEC50 (human PD-L1): 7.53

SMILES: COc1cc(-c2nccc(-c3cccc(-c4cc5c(c(OC)c4)CN(C[C@@H]4CCC(=O)N4)CC5)c3Cl)c2Cl)ccc1CNC[C@@H]1CCC(=O)N1 [Compound 18, (S)-5-((6-(2-chloro-3-(3-chloro-2-(3-methoxy-4-(((((S)-5-oxopyrrolidin-2-yl)methyl)amino)methyl)phenyl)pyridin-4-yl)phenyl)-8-methoxy-3,4-dihydroisoquinolin-2(1H)-yl)methyl)pyrrolidin-2-one]
- pIC50 [1]: 7.40
- pEC50 (human PD-L1): 7.12

SMILES: COc1nc(-c2cccc(-c3ccnc(-c4cnc5c(CNC6CCN(C(C)=O)CC6)cn(C)c5c4)c3Cl)c2Cl)ccc1CNC[C@@H]1CCC(=O)N1 [Compound 21, (S)-5-((((6-(3-(2-(3-(((1-acetylpiperidin-4-yl)amino)methyl)-1-methyl-1H-pyrrolo[3,2-b]pyridin-6-yl)-3-chloropyridin-4-yl)-2-chlorophenyl)-2-methoxypyridin-3-yl)methyl)amino)methyl)pyrrolidin-2-one]
- pIC50 [1]: 10.00
- pEC50 (human PD-L1): 7.12
